Data set [1] can be described thus: UHPLC elution as indicator of hydrophilicity. The class given is physicochemical. The note with it: standard UHPLC conditions, 214 nm; with versus without SynTag.
For data set [2] the following is noted: once synthesized; cited from earlier work. The text has this:
Amyloid-β is a biologically relevant peptide that is investigated for its role in Alzheimer’s disease (Figure 5D). The peptide is notoriously difficult to synthesize because it severely aggregates at the very beginning of the synthesis (i.e., residues 27–42).

Starred links: 1 amine or outer side, 2 acyl side, 3 side chain; linkers in the order of their positions; H or OH if unused. Non-standard residues stand in square brackets, D forms with d. Residues, ends and D or L forms follow the SMILES beside them. No end group written: not given here. X1 = C[C@H](N[*:1])C(=O)n1c(=O)n(C)c2ccc(C(=O)[*:2])cc21

With KGAIIGLMVGGVVIA-NH2 [Aβ42[27–42]], the “hydrophilicity by UHPLC elution / peak shape (in words)” value in data set [1] is “elutes later than Aβ42[27–42]-MeNbz-Arg6”.
On the same count and under the same terms, in the case of `CC[C@H](C)[C@H](NC(=O)[C@H](C)NC(=O)CNC(=O)[C@@H](N)CCCCN)C(=O)N[C@H](C(=O)NCC(=O)N[C@@H](CC(C)C)C(=O)N[C@@H](CCSC)C(=O)N[C@H](C(=O)NCC(=O)NCC(=O)N[C@H](C(=O)N[C@H](C(=O)N[C@H](C(=O)N[C@@H](C)C(=O)n1c(=O)n(C)c2ccc(C(=O)N[C@@H](CCCNC(=N)N)C(=O)N[C@@H](CCCNC(=N)N)C(=O)N[C@@H](CCCNC(=N)N)C(=O)N[C@@H](CCCNC(=N)N)C(=O)N[C@@H](CCCNC(=N)N)C(=O)N[C@@H](CCCNC(=N)N)C(N)=O)cc21)[C@@H](C)CC)C(C)C)C(C)C)C(C)C)[C@@H](C)CC` [Aβ42[27–42]-SynTag] (H-KGAIIGLMVGGVVI[X1]RRRRRR-NH2) it was “increased hydrophilicity”.
For “Amyloid-β: biologically relevant peptide investigated for its role in Alzheimer’s disease”, the “solubility (in words)” value in data set [2] is “barely soluble”.
